Laboratory results taken from patent publication US20090054504A1 (KNOPP NEUROSCIENCES, INC., priority 2007, published 2009).
Several values for one entry are separate records, joined by “and”; a condition that tells them apart may be missing. Equal values may be shown once. Read-outs that look alike come from different tables or passages of the source.

What was measured:
clinical [1] = conditions: human, oral, Fasted; for Cmax: mean ± SD; for Tmax: median
Experimental: (§3) The first panel was administered a single IR dose of 50 mg, followed 48 hours later by 4½ days of multiple IR dosing (twice daily) at 50 mg Q12 hours. The second panel was administered a single IR dose of 100 mg, followed 48 hours later by 4½ days of multiple IR dosing (twice daily) at 100 mg Q12 hours. Safety observations included vital signs, physical examination, clinical laboratory tests, ECGs, and adverse event reporting. Blood samples were collected pre-dose on Day 1 and serially for 48 hours post-dose to assess the single-dose pharmacokinetics.

minipigs [2] = conditions: 6-month study, any dose level
clinical [3] = conditions: human, blood, oral
Experimental: (§1) Safety observations included vital signs, physical examination, clinical laboratory tests, ECGs, and adverse event reporting. Blood and urine samples were collected pre-dose and for 72 hours post-dose to assess the pharmacokinetics.

healthy adult volunteers [4] = experiment: clinical; conditions: for CL/F / Ue / Fe / λZ: mean ± SD
Experimental: as §1

D1 dopamine receptor = D1 dopamine receptor (Homo sapiens, UniProt P21728); conditions: literature and own data
Chain of D1 dopamine receptor (P21728 whole entry): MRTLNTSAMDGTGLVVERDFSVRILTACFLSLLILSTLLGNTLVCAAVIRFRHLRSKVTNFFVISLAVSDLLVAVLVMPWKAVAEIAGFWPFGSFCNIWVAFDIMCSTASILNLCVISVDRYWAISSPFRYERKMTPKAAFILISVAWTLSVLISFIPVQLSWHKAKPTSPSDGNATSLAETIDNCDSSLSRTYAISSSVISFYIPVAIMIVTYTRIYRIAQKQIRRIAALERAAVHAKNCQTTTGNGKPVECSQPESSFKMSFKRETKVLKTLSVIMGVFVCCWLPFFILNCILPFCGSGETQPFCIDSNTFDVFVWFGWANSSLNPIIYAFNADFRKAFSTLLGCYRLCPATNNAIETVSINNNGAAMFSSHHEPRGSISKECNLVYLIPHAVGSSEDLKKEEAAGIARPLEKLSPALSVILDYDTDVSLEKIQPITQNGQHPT
Experimental: (§2) These concentrations were tested in cell lines expressing select human cloned dopamine receptors (D2S, D3).

D5 dopamine receptor = D5 dopamine receptor (Homo sapiens, UniProt P21918); conditions: literature and own data
Chain of D5 dopamine receptor (P21918 whole entry): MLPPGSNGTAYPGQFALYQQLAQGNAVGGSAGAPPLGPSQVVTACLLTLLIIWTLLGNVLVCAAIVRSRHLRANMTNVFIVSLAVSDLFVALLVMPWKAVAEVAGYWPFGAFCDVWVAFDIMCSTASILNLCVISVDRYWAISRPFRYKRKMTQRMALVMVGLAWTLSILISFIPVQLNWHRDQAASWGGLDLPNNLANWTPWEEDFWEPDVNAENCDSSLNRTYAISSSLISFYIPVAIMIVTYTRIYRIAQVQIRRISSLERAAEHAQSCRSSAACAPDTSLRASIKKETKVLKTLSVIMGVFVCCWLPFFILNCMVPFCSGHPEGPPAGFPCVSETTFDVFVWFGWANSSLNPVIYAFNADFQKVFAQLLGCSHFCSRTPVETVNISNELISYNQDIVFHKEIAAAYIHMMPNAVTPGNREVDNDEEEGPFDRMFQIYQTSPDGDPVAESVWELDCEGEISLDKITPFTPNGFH
Experimental: as §2

minipigs [5] = conditions: past month 7, any dose level
healthy adult volunteers [6] = system: healthy adult volunteers
Experimental: as §3

rats [7] = conditions: 6-month study, any dose level
in vivo = conditions: both, minipig
Experimental: (§4) The 3- and 6-month repeat dose studies have now been completed at the 7.5, 25 and 50 mg/kg dose levels and the 9-month repeat dose study is ongoing.

minipigs [8] = system: minipigs
minipigs [9] = conditions: both, minipig, in vivo, 14 days
Experimental: as §4

D2 dopamine receptor = experiment: D2 binding affinity from journal publications (Schneider & Mierau 1987; Wong & Shrikhande 2003); conditions: range over the literature sources
[10] = biological target: human cloned dopamine receptors (D3) (Homo sapiens, UniProt P35462); experiment: biochemical
Chain of human cloned dopamine receptors (D3) (P35462 whole entry): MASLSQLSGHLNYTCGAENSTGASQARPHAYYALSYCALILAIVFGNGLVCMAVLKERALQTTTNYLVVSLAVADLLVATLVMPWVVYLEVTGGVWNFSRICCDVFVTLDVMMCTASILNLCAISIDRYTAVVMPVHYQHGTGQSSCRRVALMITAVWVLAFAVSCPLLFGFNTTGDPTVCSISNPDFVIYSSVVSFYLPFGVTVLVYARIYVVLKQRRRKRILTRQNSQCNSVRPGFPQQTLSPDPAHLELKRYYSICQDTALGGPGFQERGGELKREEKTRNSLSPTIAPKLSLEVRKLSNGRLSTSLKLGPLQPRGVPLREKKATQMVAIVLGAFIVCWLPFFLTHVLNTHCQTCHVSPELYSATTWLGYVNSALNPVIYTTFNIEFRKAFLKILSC
Experimental: as §2

rats [11] = system: rats
Experimental: 3.3—Toxicology Studies. […] Following this study, 3- and 6-month repeat dose toxicology studies were completed at doses of 30, 100, and 300 mg/kg.

[12] = system: non-naïve male beagle dogs
Experimental: Doses were administered orally by gavage and clinical observations were taken continuously following dosing: hourly for the first four hours, and then twice daily cage-side observations for the duration of the inter-dose or post-dose interval. Observations were made of clinical signs, mortality, injury and availability of food and water. Animals were fasted for 24 hr prior to dosing. Dogs in each group were exposed to only one drug, or the combination; each dose was administered only once, with a subsequent dose administered after a recovery period of 4 days.

[13] = blood, 50 mg, CL002, 50 mg Q12H (Day 1)
[14] = blood, 50 mg, CL002, 50 mg Q12H (Day 7)
[15] = in vivo, 100 mg, CL002, 100 mg Q12H (Day 1)
[16] = in vivo, 100 mg, CL002, 100 mg Q12H (Day 7)
[17] = CL002, 50 mg Q12H (Day 1), Fasted, mean ± SD
[18] = CL002, 50 mg Q12H (Day 7), Fasted, mean ± SD
[19] = CL002, 100 mg Q12H (Day 1), Fasted, mean ± SD
[20] = CL002, 100 mg Q12H (Day 7), Fasted, mean ± SD
[21] = Day 1, 50 mg IR oral, fasted, mean ± SD
[22] = Day 1, 100 mg IR oral, fasted, mean ± SD
[23] = Day 7, 50 mg after Q12H Days 3-6, fasted, mean ± SD
[24] = Day 7, 100 mg after Q12H Days 3-6, fasted, mean ± SD

**Q.** For CCCN[C@@H]1CCc2nc(N)sc2C1 [RPPX, (6R)-4,5,6,7-tetrahydro-N6-propyl-2,6-benzothiazole-diamine], which Cmax (clinical [1]; [13]) is on record?
**A.** 139 ± 15.3 ng/mL

**Q.** And the Cmax (clinical [1]; [14])?
**A.** 191 ± 20.9 ng/mL

**Q.** What about the Tmax (clinical [1]; [13]) of the same compound?
**A.** 1.83 h

**Q.** And the Tmax (clinical [1]; [14])?
**A.** 1.75 h

**Q.** What about the Cmax (clinical [1]; [15]) of the same compound?
**A.** 248 ± 30.4 ng/mL

**Q.** What about the Cmax (clinical [1]; [16]) of the same compound?
**A.** 306 ± 55 ng/mL

**Q.** What about the Tmax (clinical [1]; [15]) of the same compound?
**A.** 1.92 h

**Q.** What about the Tmax (clinical [1]; [16]) of the same compound?
**A.** 2 h

**Q.** And the “mortality / clinical observations between the 13-week and 26-week sacrifices, minipigs” value (minipigs [2])?
**A.** no mortalities attributed to test article or significant clinical observations

**Q.** What about the Cmax (clinical [3]; 50 mg) of the same compound?
**A.** 125 ± 22 ng/mL

**Q.** What about the Tmax (clinical [3]; 50 mg) of the same compound?
**A.** 2.04 h

**Q.** And the Cmax (clinical [3]; 150 mg)?
**A.** 360 ± 60.4 ng/mL

**Q.** And the Tmax (clinical [3]; 150 mg)?
**A.** 2.04 h

**Q.** What about the Cmax (clinical [3]; 300 mg) of the same compound?
**A.** 781 ± 158 ng/mL

**Q.** What about the Tmax (clinical [3]; 300 mg) of the same compound?
**A.** 1.96 h

**Q.** What about the CL/F (healthy adult volunteers [4]; CL001, 50 mg SD, Fasted) of the same compound?
**A.** 706 ± 182 mL/h

**Q.** What about the Ue (healthy adult volunteers [4]; CL001, 50 mg SD, Fasted) of the same compound?
**A.** 35.3 ± 5.19 ^ mg

**Q.** And the CL/F (healthy adult volunteers [4]; CL001, 150 mg SD, Fasted)?
**A.** 692 ± 183 mL/h

**Q.** What about the Ue (healthy adult volunteers [4]; CL001, 150 mg SD, Fasted) of the same compound?
**A.** 60.5 ± 7.04 ^ mg

**Q.** And the CL/F (healthy adult volunteers [4]; CL001, 150 mg SD, second 150 mg line, Food printed Fasted)?
**A.** 774 ± 165 mL/h

**Q.** And the CL/F (healthy adult volunteers [4]; CL001, 300 mg SD, Fasted)?
**A.** 659 ± 260 mL/h

**Q.** What about the Ue (healthy adult volunteers [4]; CL001, 300 mg SD, Fasted) of the same compound?
**A.** 198 ± 28.0 ^ mg

**Q.** And the “Urinary excretion of unchanged drug, share of drug elimination” value (healthy adult volunteers [4]; across dose levels)?
**A.** approximately 70%

**Q.** What about the “subjects reporting at least one non-serious adverse event” value (healthy adult volunteers [4]; all 24 subjects (RPPX or placebo, blinded)) of the same compound?
**A.** 46%

**Q.** What about the “subjects with mild dizziness (most frequent AE)” value (healthy adult volunteers [4]; all subjects (RPPX or placebo, blinded)) of the same compound?
**A.** 21%

**Q.** What about the CL/F (healthy adult volunteers [4]; single oral 50 mg, fasted) of the same compound?
**A.** 706 ± 182 (6) mL/min

**Q.** What about the Fe (healthy adult volunteers [4]; single oral 50 mg, fasted) of the same compound?
**A.** 70.7 ± 10.4 (6) % Dose

**Q.** And the Ue (healthy adult volunteers [4]; single oral 50 mg, fasted)?
**A.** 35.3 ± 5.19 (6) mg

**Q.** And the λZ (healthy adult volunteers [4]; single oral 50 mg, fasted)?
**A.** 0.1064 ± 0.0171 (6) h^−1

**Q.** And the CL/F (healthy adult volunteers [4]; single oral 150 mg, fasted)?
**A.** 692 ± 183 (5) mL/min

**Q.** What about the Fe (healthy adult volunteers [4]; single oral 150 mg, fasted) of the same compound?
**A.** 40.3 ± 4.69 (6) % Dose

**Q.** And the Ue (healthy adult volunteers [4]; single oral 150 mg, fasted)?
**A.** 60.5 ± 7.04 (6) mg

**Q.** What about the λZ (healthy adult volunteers [4]; single oral 150 mg, fasted) of the same compound?
**A.** 0.1001 ± 0.0087 (5) h^−1

**Q.** And the CL/F (healthy adult volunteers [4]; single oral 150 mg, fed)?
**A.** 774 ± 165 (6) mL/min

**Q.** What about the λZ (healthy adult volunteers [4]; single oral 150 mg, fed) of the same compound?
**A.** 0.1152 ± 0.0256 (6) h^−1

**Q.** And the CL/F (healthy adult volunteers [4]; single oral 300 mg, fasted)?
**A.** 659 ± 260 (6) mL/min

**Q.** And the Fe (healthy adult volunteers [4]; single oral 300 mg, fasted)?
**A.** 65.8 ± 9.33 (6) % Dose

**Q.** What about the Ue (healthy adult volunteers [4]; single oral 300 mg, fasted) of the same compound?
**A.** 198 ± 28.0 (6) mg

**Q.** And the λZ (healthy adult volunteers [4]; single oral 300 mg, fasted)?
**A.** 0.1151 ± 0.0309 (6) h^−1

**Q.** What about the “interaction with D1 dopamine receptors” value (D1 dopamine receptor) of the same compound?
**A.** no significant interaction

**Q.** What about the “interaction with D5 dopamine receptors” value (D5 dopamine receptor) of the same compound?
**A.** no significant interaction

**Q.** What about the “deaths / clinical observations, 9-month study in minipigs” value (minipigs [5]) of the same compound?
**A.** no deaths attributed to test article or significant clinical observations

**Q.** And the “increase of AUC(0-12) from Day 1 to Day 7” value (healthy adult volunteers [6]; 50 mg Q12H)?
**A.** 40%

**Q.** What about the “increase of Cmax from Day 1 to Day 7” value (healthy adult volunteers [6]; 50 mg Q12H) of the same compound?
**A.** 37%

**Q.** What about the “increase of AUC(0-12) from Day 1 to Day 7” value (healthy adult volunteers [6]; 100 mg Q12H) of the same compound?
**A.** 38%

**Q.** And the “increase of Cmax from Day 1 to Day 7” value (healthy adult volunteers [6]; 100 mg Q12H)?
**A.** 24%

**Q.** What about the “AUC (inf)” value (healthy adult volunteers [6]; [17]) of the same compound?
**A.** 1,502 ± 280 h*ng/mL

**Q.** What about the “AUC(0-t)” value (healthy adult volunteers [6]; [17]) of the same compound?
**A.** 1,463 ± 280 h*ng/mL

**Q.** And the “AUC(0−12)” value (healthy adult volunteers [6]; [17])?
**A.** 1,035 ± 121 h*ng/mL

**Q.** What about the CL/F (healthy adult volunteers [6]; [17]) of the same compound?
**A.** 571 ± 107 mL/h

**Q.** What about the “AUC(0−12)” value (healthy adult volunteers [6]; [18]) of the same compound?
**A.** 1,449 ± 221 h*ng/mL

**Q.** And the CL/F (healthy adult volunteers [6]; [18])?
**A.** 585 ± 81.6 mL/h

**Q.** What about the “AUC(0-t)” value (healthy adult volunteers [6]; [19]) of the same compound?
**A.** 2,545 ± 497 h*ng/mL

**Q.** And the “AUC(0−12)” value (healthy adult volunteers [6]; [19])?
**A.** 1,776 ± 260 h*ng/mL

**Q.** What about the CL/F (healthy adult volunteers [6]; [19]) of the same compound?
**A.** 665 ± 107 mL/h

**Q.** And the “AUC(0−12)” value (healthy adult volunteers [6]; [20])?
**A.** 2,465 ± 299 h*ng/mL

**Q.** What about the CL/F (healthy adult volunteers [6]; [20]) of the same compound?
**A.** 684 ± 76.1 mL/h

**Q.** What about the CL/F (healthy adult volunteers [6]; [21]) of the same compound?
**A.** 571 ± 107 (6) mL/min

**Q.** What about the λz (healthy adult volunteers [6]; [21]) of the same compound?
**A.** 0.1132 ± 0.0230 (6) h^−1

**Q.** What about the CL/F (healthy adult volunteers [6]; [22]) of the same compound?
**A.** 665 ± 107 (6) mL/min

**Q.** And the λz (healthy adult volunteers [6]; [22])?
**A.** 0.1073 ± 0.0161 (6) h^−1

**Q.** And the CL/F (healthy adult volunteers [6]; [23])?
**A.** 585 ± 81.6 (6) mL/min

**Q.** What about the λz (healthy adult volunteers [6]; [23]) of the same compound?
**A.** 0.1025 ± 0.0186 (6) h^−1

**Q.** What about the CL/F (healthy adult volunteers [6]; [24]) of the same compound?
**A.** 684 ± 76.1 (6) mL/min

**Q.** What about the λz (healthy adult volunteers [6]; [24]) of the same compound?
**A.** 0.0894 ± 0.0117 (6) h^−1

**Q.** And the “mortality between the 13-week and 26-week sacrifices, rats” value (rats [7])?
**A.** no mortalities at any dose level

**Q.** What about the NOAEL at 14 days (in vivo) of the same compound?
**A.** ≥ 75 mg/kg

**Q.** What about the “mortality in repeat dose studies in minipigs” value (minipigs [8]; 75 mg/kg level, by month 2) of the same compound?
**A.** mortalities

**Q.** And the “target organ toxicity by histopathology after 3 months, minipigs” value (minipigs [8]; both, minipig, in vivo, 3 months)?
**A.** No target organ toxicity

**Q.** What about the “target organ toxicity by histopathology, 2-week study in minipigs” value (minipigs [9]) of the same compound?
**A.** No target organ toxicity

**Q.** And the “binding affinity of RPPX at the D2 receptor, times lower than PPX, literature” value (D2 dopamine receptor)?
**A.** 10-20 times and 9-21 times

**Q.** What about the IC50 [10] of the same compound?
**A.** 610 nM

**Q.** And the “target organ toxicity by histopathology, 3-month study in rats” value (rats [11]; both, rat, in vivo, 300 mg/kg, 3 months)?
**A.** some target organ toxicity

**Q.** What about the “target organ toxicity by histopathology, 2-week study in rats” value (rats [11]; both, rat, in vivo, 14 days) of the same compound?
**A.** No target organ toxicity

**Q.** What about the “mortality, 2-week study in rats” value (rats [11]; high dose of 500 mg/kg) of the same compound?
**A.** caused mortality

**Q.** What about the “human equivalence dose of the dog MTD, for a 70 kg human subject” value ([12]; from dog data) of the same compound?
**A.** about 3,000 mg

**Q.** What about the “observable effects in dogs” value ([12]; male, beagle, dog, in vivo, 4 days) of the same compound?
**A.** no observable effects
